What was measured:
[1] = target: T1, recombinant human CI-M6PR protein (Homo sapiens, UniProt P11717); assay: M6PR binding ELISA of matuzumab ligand-linker conjugates; conditions: conjugates of ligand linkers
T1 construct: purchased R&D 6418-GR-050
Experimental: Binding affinity of matuzumab conjugated to ligand-linkers for M6PR w as determined by ELISA using the following protocol: Nunc black solid bottom MaxiSorp plates were allowed to incubate overnight at 4° C. coated with 1 μg/mL of recombinant human CI-M6PR protein (R&D, 6418-GR-050) in 50 μL PBS. The next day, coating was decanted and plates were washed 3× with PBS. Wells were blocked with 350 μL of 3% BSA-PBS for 1 hour at room temperature. Blocking solution was removed and matuzumab conjugates (matuzumab-Compound I-7 (d4), matuzumab-Compound I-7 (d8), matuzumab-Compound I-8 (d4), matuzumab-Compound I-9 (d4), matuzumab-Compound I-11 (d4) and matuzumab-Compound I-12 (d4)) and their respective isotype controls (human IgG (bioxcell, BP0297) conjugated to the ligand-linker compounds being tested) were diluted in 3% BSA-PBS. 50 µL of diluted conjugates were added to the plate and allowed to incubate at room temperature for 2 hours. After incubation, solutions in plate were decanted and washed with […] of 0.05% PBS-Tween20 three times, drying the plate each wash on a clean paper towel. 50 μL of peroxidase AffiniPure Mouse Anti-Human IgG (Jackson Immuno, 209-035-088) diluted in 3% BSA-PBS to 0.2 μg/mL was added to the plate and allowed to incubate for 1 hour at room temperature in the dark. […]

Jurkat cells = assay: Intracellular uptake of anti-IgG2a conjugates with IgG2a-Alexa488 in Jurkat cells; format: cell-based, human; conditions: 1 h and 24 h
Experimental: Anti-IgG2a conjugates were generated by adding anti-IgG2a rIgG1 (Southern Biotech, Cat #1155-ol) to a solution of PBS buffer pH 7.2 containing 10% DMSO (final antibody concentration 5 mg/mL). Linker (e.g., Compound I-7) was added (at a 5-40× linker:antibody molar ratio), and the reaction was incubated at room temperature for 3 hours. Excess linker was removed by size exclusion chromatography (Superdex 200 Increase. Cat i28990944) and final DAR, was determined by LC/MS (Sciex 5600+. Acquity UPLC BEH C4 column. Cat #186004495). The resulting rIgG1 antibody conjugates were used in the experiments below.
The anti-IgG2a conjugates were bound to IgG2a-Alexa488, as follows: equal molar ratios of anti-IgG2a and IgG2a-Alexa488 were added in tissue culture media for 30 minutes at room temperature. The resulting anti-IgG2a:IgG2a antibody-Alexa488 compositions were added to Jurkat cells (100k cells/50 ul per well, n=2), and Alexa488 fluorescence levels were measured (via Alexa488 measurement) at 1 hour and 24 hours by flow cytometry. Because Alexa488 accumulates in cells, this presents a way to measure total intracellular uptake by cells over time.

T1 sequence (P11717 41-2491): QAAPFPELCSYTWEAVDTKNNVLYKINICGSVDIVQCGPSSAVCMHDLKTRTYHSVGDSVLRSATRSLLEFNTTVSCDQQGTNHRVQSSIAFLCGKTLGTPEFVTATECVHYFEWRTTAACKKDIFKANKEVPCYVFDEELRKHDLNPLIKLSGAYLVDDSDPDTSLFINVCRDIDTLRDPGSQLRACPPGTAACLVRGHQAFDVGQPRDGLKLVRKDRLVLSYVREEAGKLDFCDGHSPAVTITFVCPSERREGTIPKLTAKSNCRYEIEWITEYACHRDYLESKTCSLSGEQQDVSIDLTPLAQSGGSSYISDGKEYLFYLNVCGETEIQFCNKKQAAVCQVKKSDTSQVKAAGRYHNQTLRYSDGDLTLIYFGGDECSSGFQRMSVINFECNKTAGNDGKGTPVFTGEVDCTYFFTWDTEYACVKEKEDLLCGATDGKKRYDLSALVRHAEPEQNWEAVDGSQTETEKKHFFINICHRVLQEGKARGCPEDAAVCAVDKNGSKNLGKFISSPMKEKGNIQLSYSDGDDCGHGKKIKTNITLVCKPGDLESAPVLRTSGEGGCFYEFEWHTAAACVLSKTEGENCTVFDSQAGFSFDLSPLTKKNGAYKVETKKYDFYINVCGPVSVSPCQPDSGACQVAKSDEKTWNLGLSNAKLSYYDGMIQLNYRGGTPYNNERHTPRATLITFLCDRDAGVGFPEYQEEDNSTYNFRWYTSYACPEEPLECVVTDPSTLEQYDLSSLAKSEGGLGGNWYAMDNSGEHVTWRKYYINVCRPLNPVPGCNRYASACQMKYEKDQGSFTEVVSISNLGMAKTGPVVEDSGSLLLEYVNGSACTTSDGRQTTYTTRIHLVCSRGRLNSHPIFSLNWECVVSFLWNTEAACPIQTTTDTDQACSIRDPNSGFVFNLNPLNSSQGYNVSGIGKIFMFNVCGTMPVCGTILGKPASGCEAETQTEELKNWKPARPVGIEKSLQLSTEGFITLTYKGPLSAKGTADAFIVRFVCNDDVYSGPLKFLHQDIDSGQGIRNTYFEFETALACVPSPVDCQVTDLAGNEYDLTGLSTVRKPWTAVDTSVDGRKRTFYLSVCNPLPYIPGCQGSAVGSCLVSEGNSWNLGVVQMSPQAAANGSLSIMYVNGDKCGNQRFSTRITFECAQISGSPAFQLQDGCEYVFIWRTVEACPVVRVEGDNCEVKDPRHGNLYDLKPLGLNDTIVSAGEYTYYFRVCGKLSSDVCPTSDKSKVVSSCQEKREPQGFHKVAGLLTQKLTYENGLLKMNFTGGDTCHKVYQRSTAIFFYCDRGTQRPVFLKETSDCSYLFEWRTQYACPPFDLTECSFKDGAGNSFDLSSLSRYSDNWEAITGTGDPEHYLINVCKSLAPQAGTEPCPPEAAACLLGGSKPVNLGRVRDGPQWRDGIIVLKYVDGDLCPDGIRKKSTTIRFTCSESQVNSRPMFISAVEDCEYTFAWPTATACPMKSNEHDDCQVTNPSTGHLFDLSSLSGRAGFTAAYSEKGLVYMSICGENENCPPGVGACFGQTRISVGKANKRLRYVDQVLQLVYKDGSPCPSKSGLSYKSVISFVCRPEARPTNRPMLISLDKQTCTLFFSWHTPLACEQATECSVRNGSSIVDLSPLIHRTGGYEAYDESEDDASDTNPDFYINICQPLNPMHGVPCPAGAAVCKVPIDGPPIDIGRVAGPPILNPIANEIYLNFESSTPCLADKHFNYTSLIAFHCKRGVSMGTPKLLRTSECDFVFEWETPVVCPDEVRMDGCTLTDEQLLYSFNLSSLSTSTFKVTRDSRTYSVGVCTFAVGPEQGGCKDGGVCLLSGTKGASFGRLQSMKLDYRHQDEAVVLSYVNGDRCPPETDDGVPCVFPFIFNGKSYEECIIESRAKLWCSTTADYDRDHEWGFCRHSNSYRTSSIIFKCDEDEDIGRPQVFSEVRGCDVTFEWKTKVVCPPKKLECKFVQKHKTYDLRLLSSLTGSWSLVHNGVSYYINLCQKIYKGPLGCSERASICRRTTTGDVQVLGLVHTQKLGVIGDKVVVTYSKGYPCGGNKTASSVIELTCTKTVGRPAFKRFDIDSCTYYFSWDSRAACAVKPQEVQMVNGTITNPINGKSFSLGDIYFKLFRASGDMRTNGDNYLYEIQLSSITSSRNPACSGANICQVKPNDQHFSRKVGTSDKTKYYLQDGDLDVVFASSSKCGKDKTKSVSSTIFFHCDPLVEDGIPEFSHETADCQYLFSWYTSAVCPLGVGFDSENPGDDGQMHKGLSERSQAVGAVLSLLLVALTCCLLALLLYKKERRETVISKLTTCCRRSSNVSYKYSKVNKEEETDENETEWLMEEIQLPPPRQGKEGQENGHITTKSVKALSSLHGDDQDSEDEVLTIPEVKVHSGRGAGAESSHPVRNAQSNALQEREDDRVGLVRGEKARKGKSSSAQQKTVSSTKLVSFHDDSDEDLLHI

Structure (SMILES)	binding affinity to M6PR relative to Compound I-7 [1]	intracellular uptake (Alexa488 fluorescence) (Jurkat cells)
O=C(CCN1C(=O)C=CC1=O)NCCOCCOCCOCCn1cc(CCO[C@H]2O[C@H](CCP(=O)(O)O)[C@@H](O)[C@H](O)[C@@H]2O)nn1 [Compound I-10]	weaker binding affinity to M6PR than Compound I-7	sufficiently robust uptake
O=C(CCOCCn1cc(CCO[C@H]2O[C@H](CCP(=O)(O)O)[C@@H](O)[C@H](O)[C@@H]2O)nn1)Oc1c(F)c(F)c(F)c(F)c1F [Compound I-11]	weaker binding affinity to M6PR than Compound I-7	sufficiently robust uptake

— patent US20230279426A1, “MODIFIED VIRAL COMPOSITIONS FOR VIRAL TRANSDUCTION” (Lycia Therapeutics, Inc., priority 2020, published 2023)
